Results on six compounds are retold here after ChEMBL document CHEMBL1122964, “Conformational analysis and active site modelling of angiotensin-converting enzyme inhibitors” (J Med Chem, 1985).

Where a SMILES comes first, the peptide text is derived from it. The star is where a group is joined. Bz = O=C(c1ccccc1)*

The target in the first experiment is T1, Angiotensin-converting enzyme (Homo sapiens, UniProt P12821). Put plainly: Compound was evaluated for the inhibition of Angiotensin I converting enzyme.
T1 sequence (P12821 whole entry): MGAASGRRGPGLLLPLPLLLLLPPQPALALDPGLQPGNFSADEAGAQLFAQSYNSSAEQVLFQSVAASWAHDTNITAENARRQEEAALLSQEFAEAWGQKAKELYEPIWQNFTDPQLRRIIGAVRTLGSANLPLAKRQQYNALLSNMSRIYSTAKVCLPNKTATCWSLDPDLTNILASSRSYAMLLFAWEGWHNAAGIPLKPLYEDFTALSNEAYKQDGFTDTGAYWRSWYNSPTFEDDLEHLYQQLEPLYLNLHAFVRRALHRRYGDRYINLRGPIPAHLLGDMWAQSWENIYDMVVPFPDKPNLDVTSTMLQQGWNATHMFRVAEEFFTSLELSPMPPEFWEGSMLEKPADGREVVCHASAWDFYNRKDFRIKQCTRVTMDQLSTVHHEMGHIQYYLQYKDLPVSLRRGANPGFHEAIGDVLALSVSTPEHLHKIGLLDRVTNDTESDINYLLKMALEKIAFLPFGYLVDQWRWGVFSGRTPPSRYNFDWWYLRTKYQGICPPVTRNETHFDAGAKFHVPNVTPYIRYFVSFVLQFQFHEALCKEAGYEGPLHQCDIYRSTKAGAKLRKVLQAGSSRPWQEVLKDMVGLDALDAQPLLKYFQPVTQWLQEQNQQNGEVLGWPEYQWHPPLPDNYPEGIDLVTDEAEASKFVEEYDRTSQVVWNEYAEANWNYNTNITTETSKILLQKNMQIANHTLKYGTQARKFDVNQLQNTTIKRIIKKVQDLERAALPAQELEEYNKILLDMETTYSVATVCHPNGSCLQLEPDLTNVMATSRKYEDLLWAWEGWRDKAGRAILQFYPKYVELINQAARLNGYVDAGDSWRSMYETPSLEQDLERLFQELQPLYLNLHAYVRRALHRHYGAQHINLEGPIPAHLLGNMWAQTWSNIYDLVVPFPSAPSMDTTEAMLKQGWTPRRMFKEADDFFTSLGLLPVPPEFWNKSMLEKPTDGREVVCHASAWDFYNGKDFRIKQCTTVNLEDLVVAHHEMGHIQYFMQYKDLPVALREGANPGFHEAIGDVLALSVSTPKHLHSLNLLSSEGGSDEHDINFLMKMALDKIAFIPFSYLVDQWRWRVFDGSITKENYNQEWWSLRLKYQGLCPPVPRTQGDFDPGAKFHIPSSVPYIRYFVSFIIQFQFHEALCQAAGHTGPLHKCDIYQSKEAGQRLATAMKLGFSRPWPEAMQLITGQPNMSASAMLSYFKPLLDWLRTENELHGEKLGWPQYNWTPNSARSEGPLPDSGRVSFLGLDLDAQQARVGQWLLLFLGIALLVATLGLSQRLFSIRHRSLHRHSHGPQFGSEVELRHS
Conditions: not given
For orientation: Ki means a measure of affinity in units of concentration, obtained from inhibition or displacement. Low readings indicate tighter binding, high ones weaker binding. With `C[C@@H](NP(=O)(O)O)C(=O)N1CCC[C@H]1C(=O)O`, the Ki turned out to be 0.0014 µM.

On to `C[C@H](NP(=O)(O)CCc1ccccc1)C(=O)N1CCC[C@H]1C(=O)O`, for which the Ki was 0.0005 µM.

For a further experiment, the target named is T1, Angiotensin-converting enzyme. Briefly: Inhibition of Angiotensin I converting enzyme. Conditions: read-out: I50.
Turning to `O=C(O)[C@@H]1CCCN1C(=O)CCS`, the IC50 is 1800 µM.

Consider `O=C(O)CN1C(=O)[C@@H](NC(CCc2ccccc2)C(=O)O)CSc2ccccc21` (stereo partly specified), for which the IC50 amounted to 0.003 µM.

As to `O=C(O)[C@H]1CCCN1C(=O)CCS`, the IC50 was 0.2 µM.

As to `C[C@H](NC(=O)[C@H](Cc1ccccc1)NC(=O)c1ccccc1)C(=O)N1CCC[C@H]1C(=O)O` (Bz-Phe-Ala-Pro-OH), the IC50 was found to be 0.0032 µM.
